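The compound was tested at five concentrations on cells cultured in 96-well plates, with a 48-hour exposure period. TGI marks complete inhibition of growth.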
Assays:
Assay in all cases: inhibition of tumour cell growth, NCI panel, 48 h
[1] = test system: HOP-62 NSCLC
[2] = test system: HOP-92 NSCLC
[3] = test system: A498 renal
[4] = test system: K-562 leukemia
[5] = test system: HL-60(TB) leukemia
[6] = test system: UACC-62 melanoma
[7] = test system: SN12C renal
[8] = test system: A549 NSCLC
[9] = test system: SK-OV-3 ovarian
[10] = test system: UO-31 renal
[11] = test system: CCRF-CEM leukemia
[12] = test system: MALME-3M melanoma
[13] = test system: IGROV1 ovarian
[14] = test system: NCI-H460 lung
[15] = test system: ACHN renal
[16] = test system: SW-620 colon
[17] = test system: OVCAR-8 ovarian
[18] = test system: HCT-15 colon
[19] = test system: HCT-116 colon
[20] = test system: TK-10 renal
[21] = test system: OVCAR-3 ovarian
[22] = test system: SNB-78 CNS
[23] = test system: SNB-75 CNS
[24] = test system: U251 CNS
[25] = test system: M19-MEL melanoma
[26] = test system: LOX IMVI melanoma
[27] = test system: M14 melanoma
[28] = test system: COLO 205 colon
[29] = test system: SK-MEL-5 melanoma
[30] = test system: DMS 273 small cell lung
[31] = test system: NCI-H522 lung
[32] = test system: LXFL 529 NSCLC
[33] = test system: KM20L2 colon
[34] = test system: CAKI-1 renal
[35] = test system: SF-295 CNS
[36] = test system: UACC-257 melanoma
[37] = test system: DMS 114 small cell lung
[38] = test system: MOLT-4 leukemia
[39] = test system: SF-268 CNS
[40] = test system: SF-539 CNS
[41] = test system: NCI-H226 lung
[42] = test system: EKVX NSCLC
[43] = test system: SNB-19 CNS
[44] = test system: XF 498 CNS
[45] = test system: 786-0 renal
[46] = test system: SK-MEL-2 melanoma
[47] = test system: HT29 colon
[48] = test system: SK-MEL-28 melanoma
[49] = test system: RXF 393 renal
[50] = test system: DLD-1 colon
[51] = test system: OVCAR-5 ovarian
[52] = test system: NCI-H23 lung
[53] = test system: OVCAR-4 ovarian

Measured: TGI

N#C/C(=C1\SCC(=O)N1c1ccccc1)c1nc2ccccc2[nH]1
> 100 µM: [1] | [2] | [3] | [4] | [5] | [6] | [7] | [8] | [9] | [10] | [11] | [12] | [13] | [14] | [15] | [16] | [17] | [18] | [19] | [20] | [21] | [22] | [23] | [24] | [25] | [26] | [27] | [28] | [29] | [30] | [31] | [32] | [33] | [34] | [35] | [36] | [37] | [38] | [39] | [40] | [41] | [42] | [43] | [44] | [45] | [46] | [47] | [48] | [49] | [50] | [51] | [52] | [53]
